Test results published in PubChem BioAssay (NCI).
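Five compound concentrations were applied to cells in 96-well plates for 48 hours; endpoints were derived by simple linear interpolation of the resulting dose-response curve. GI50: concentration for 50% inhibition of growth. TGI: concentration producing complete growth inhibition.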

Legend:
Experiment in all cases: DTP human tumour cell line panel, 48 h
NCI-H460 lung = system: NCI-H460 lung
U251 CNS = system: U251 CNS
M14 melanoma = system: M14 melanoma
MALME-3M melanoma = system: MALME-3M melanoma
OVCAR-8 ovarian = system: OVCAR-8 ovarian
CAKI-1 renal = system: CAKI-1 renal
786-0 renal = system: 786-0 renal
HT29 colon = system: HT29 colon
UO-31 renal = system: UO-31 renal
EKVX NSCLC = system: EKVX NSCLC

SMILES | TGI (NCI-H460 lung) [µM] | TGI (U251 CNS) [µM] | TGI (M14 melanoma) [µM] | TGI (MALME-3M melanoma) [µM] | TGI (OVCAR-8 ovarian) [µM] | TGI (CAKI-1 renal) [µM] | TGI (786-0 renal) [µM] | TGI (HT29 colon) [µM] | GI50 (NCI-H460 lung) [µM] | GI50 (U251 CNS) [µM] | GI50 (M14 melanoma) [µM] | GI50 (MALME-3M melanoma) [µM] | GI50 (OVCAR-8 ovarian) [µM] | GI50 (UO-31 renal) [µM] | TGI (UO-31 renal) [µM] | GI50 (CAKI-1 renal) [µM] | GI50 (786-0 renal) [µM] | GI50 (HT29 colon) [µM] | GI50 (EKVX NSCLC) [µM] | TGI (EKVX NSCLC) [µM]
CC1OC(O)CC(OC(=O)c2ccccc2)C1OC(=O)c1ccccc1 (centres undefined) | > 100 | > 100 | 30.3 | 30.2 | 31.6 | 63.1 | 82.7 | 42.2 | – | – | – | – | – | – | – | – | – | – | – | –
COc1ccc(-c2nc(-c3nc4cc(C)c(C)cc4[nH]3)cc3c2[nH]c2ccccc23)cc1 | > 100 | 16.6 | 24.8 | 16.5 | > 100 | 44.5 | 5.93 | > 100 | 3.49 | 3.04 | 4.16 | 4.6 | 3.46 | 2.53 | 52.5 | 2.44 | 2.6 | 3.76 | – | –
CC[C@H](C)C(=O)O[C@H]1CCC=C2C=C[C@H](C)C(CCC3C[C@@H](O)CC(=O)O3)[C@H]21 (some centres undefined) | > 100 | > 100 | > 100 | – | > 100 | 4.96 | > 100 | > 100 | 4.9 | 1.82 | – | – | 3.78 | – | – | 1.76 | 8.71 | 29 | 12.5 | > 100
C=C[C@]1(C)C=C2C(=O)[C@@]3(O)OC(=O)[C@@]4(CCCC(C)(C)[C@H]34)[C@@]2(O)CC1 | 13.9 | 5.68 | 3.82 | 2.8 | 5.63 | 3.02 | 3.13 | 6.86 | 3.39 | 2.21 | 1.79 | 0.926 | 1.69 | 1.31 | 2.66 | 1.33 | 1.68 | 2.12 | – | –
CCOC(=O)c1c(Cl)c2c(n1Cc1cc(OC)cc(OC)c1)-c1oncc1CCC2 | > 100 | > 100 | > 100 | – | > 100 | > 60.7 | > 71.4 | 68 | 0.375 | 0.351 | 0.266 | 0.118 | 0.479 | 1.04 | > 100 | 0.29 | 1.47 | 0.314 | – | –
O=C(C=Nc1ccccc1C(=O)[O-])c1cccs1.O=C(C=Nc1ccccc1C(=O)[O-])c1cccs1.[Cu+2] | > 100 | > 100 | > 100 | > 100 | > 100 | > 100 | > 100 | > 100 | – | – | – | – | – | – | > 100 | – | – | – | – | –
NC(=O)Oc1cc(OC(N)=O)cc(N(CCCl)CCCl)c1 | 26.9 | 54.9 | 30.9 | 23.3 | 67.6 | 80.4 | 22.8 | 51.4 | 0.748 | 2.24 | 5.74 | 5.73 | 5.74 | 2.57 | 15.9 | 2.97 | 4.28 | 10.8 | – | –
COc1cc(C(=O)n2nc(N3CCN(C)CC3)c3cc(N)ccc32)cc(OC)c1OC | > 100 | 25.8 | 16.7 | 50.3 | > 100 | > 100 | > 100 | 14.9 | 4.34 | 3.65 | 3.74 | 5.12 | 4.77 | 2.87 | 18.1 | 4.52 | 4.42 | 3.65 | – | –
Cn1cc(C2=C(c3c4n(c5ccccc35)CCC(CN)CC4)C(=O)NC2=O)c2ccccc21 (centres undefined) | 8.19 | 7.21 | 8.26 | 7.88 | 9.8 | 10.7 | 8.55 | 9.29 | 4.21 | 3.74 | 4.29 | 3.8 | 4.82 | 4.07 | 7.91 | 4.75 | 4.58 | 2.88 | – | –
COC(=O)C1=CC2OC13CC1CCC3(C2=O)C1(C)C (centres undefined) | > 100 | 25.6 | 28.3 | 28.5 | 23.8 | 7.37 | 30.7 | 27.7 | – | – | – | – | – | – | 19.1 | – | – | – | – | –
COc1ccc(F)cc1C(=O)c1cnc(NC2CCN(S(C)(=O)=O)CC2)nc1N | > 25 | > 19.6 | > 25 | > 16.8 | > 21.6 | > 17.6 | > 25 | > 18.2 | 0.783 | 1.07 | 4.51 | 3.57 | 3.95 | 3.69 | > 18.6 | 2.88 | 5.03 | 2.86 | – | –
CN(C)CC1CCn2c(c(C3=C(c4cn(C)c5ccccc45)C(=O)NC3=O)c3ccccc32)C1 (centres undefined) | 8.68 | 7.64 | 8.04 | 7.31 | 9.87 | 7.66 | 8.17 | 7.83 | 4.57 | 3.95 | 4.11 | 3.59 | 4.62 | 2.69 | 5.96 | 3.44 | 4.26 | 3.16 | – | –
